± gives the standard deviation of the averaged measurements.
Key:
Assay in all cases: relative cell number vs DMSO control (72 h) (% of DMSO); higher = less growth inhibition (more cells)
Conditions in all cases: sgRNA knockout: sgNT
[1] = tested on: SKBR3
Experimental: (§1)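 QMAP-Seq: a pool of 5 breast cancer cell lines (ZR-75-1, SKBR3, HCC-38, MDA-MB-231, BT-20), each carrying 12 doxycycline-inducible Cas9 sgRNA perturbations (11 knockouts plus non-targeting sgNT), was treated with compounds for 72 h at four 10-fold doses (10 nM-10 uM or 1 nM-1 uM range). Barcodes were amplified and sequenced, and cell number was interpolated from 293T spike-in standard curves. The result is expressed as % of the median of DMSO wells. Two biological replicates.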

[2] = tested on: ZR-75-1
Experimental: as §1

[3] = tested on: MDA-MB-231
Experimental: as §1

[4] = tested on: BT-20
Experimental: as §1

[5] = tested on: HCC-38
Experimental: as §1

SMILES	relative cell number ([1]; 10 nM)	relative cell number ([1]; 100 nM)	relative cell number ([1]; 1000 nM)	relative cell number ([1]; 10000 nM)	relative cell number ([2]; 10 nM)	relative cell number ([2]; 100 nM)	relative cell number ([2]; 1000 nM)	relative cell number ([2]; 10000 nM)	relative cell number ([3]; 10 nM)	relative cell number ([3]; 100 nM)	relative cell number ([3]; 1000 nM)	relative cell number ([3]; 10000 nM)	relative cell number ([4]; 10 nM)	relative cell number ([4]; 100 nM)	relative cell number ([4]; 1000 nM)	relative cell number ([4]; 10000 nM)	relative cell number ([5]; 10 nM)	relative cell number ([5]; 100 nM)	relative cell number ([5]; 1000 nM)	relative cell number ([5]; 10000 nM)
CC[C@H](C)C(=O)O[C@H]1C[C@@H](C)C=C2C=C[C@H](C)[C@H](CC[C@@H]3C[C@@H](O)CC(=O)O3)[C@H]21 [Lovastatin]	103 ± 22	81.1 ± 12	93.1 ± 11	78.4 ± 22	138 ± 33	67.2 ± 6.6	100.5 ± 0.94	88.2 ± 6.5	112 ± 28	52.2 ± 31	83 ± 29	15.7 ± 6.2	114 ± 20	78.7 ± 11	89.9 ± 35	78.8 ± 12	96.5 ± 11	85.9 ± 6.2	102 ± 22	73.4 ± 13
CC(C)C[C@@H](C=O)NC(=O)[C@H](CC(C)C)NC(=O)[C@H](CC(C)C)NC(=O)OCc1ccccc1 [MG132]	111 ± 7.2	99.3 ± 22	14 ± 1.8	9.81 ± 0.2	80.8 ± 16	97.1 ± 11	24.7 ± 3.3	6.78 ± 1.8	121 ± 1.8	77.3 ± 41	7.19 ± 1.8	7.81 ± 2.5	102 ± 21	113 ± 32	35.4 ± 8.1	12 ± 0.91	92.8 ± 13	95.7 ± 16	5.97 ± 0.84	8.104 ± 0.025
O=C(O)CC[C@H]1CC[C@@](c2cc(F)ccc2F)(S(=O)(=O)c2ccc(Cl)cc2)CC1 [MK0752]	172 ± 42	114 ± 19	107 ± 24	111 ± 27	120 ± 36	88.2 ± 30	107 ± 22	127 ± 28	170 ± 61	93.4 ± 20	124 ± 7.5	94.4 ± 51	137 ± 39	112 ± 41	145 ± 3.2	134 ± 1.4	135 ± 24	107 ± 2.6	112 ± 14	115 ± 43
C=CCn1c(=O)c2cnc(Nc3ccc(N4CCN(C)CC4)cc3)nc2n1-c1cccc(C(C)(C)O)n1 [MK1775]	112 ± 1.2	108 ± 18	29.8 ± 14	14.7 ± 1.8	138 ± 30	77.7 ± 43	51.7 ± 24	15.6 ± 6	81.5 ± 35	74 ± 8	20.3 ± 8	13.8 ± 6.6	95.2 ± 12	84.17 ± 0.44	42.9 ± 2.7	31.7 ± 1.8	97.2 ± 20	76.6 ± 6.7	35.3 ± 2.2	29.548 ± 0.018
CC(C)C[C@H](NC(=O)CNC(=O)c1cc(Cl)ccc1Cl)B(O)O [MLN2238]	87.5 ± 27	54.1 ± 9.5	9.25 ± 0.68	2.47 ± 0.24	93.7 ± 33	81.4 ± 28	17.8 ± 7.5	10.9 ± 8	94.1 ± 17	65.3 ± 5	8.44 ± 0.14	4.72 ± 0.16	85.1 ± 6.1	91 ± 27	40.2 ± 3.5	15 ± 6.4	91.7 ± 16	50.2 ± 2.5	5.9 ± 0.86	4.82 ± 1.7
Cc1ccc(NC(=O)c2ccc(CN3CCN(C)CC3)cc2)cc1Nc1nc(-c2cccnc2)cs1 [Masitinib]	78.7 ± 58	99.4 ± 23	67.4 ± 6.4	66.6 ± 0.77	70.6 ± 28	76.2 ± 9.5	94.7 ± 34	34.2 ± 1.2	91 ± 41	74.9 ± 12	64.2 ± 30	50.7 ± 4.3	92.1 ± 2.6	80.9 ± 25	95.2 ± 38	70.8 ± 23	106 ± 6.1	78.71 ± 0.36	76.6 ± 17	97.6 ± 2.4
COc1cc(-n2c(=S)[nH]c3ccccc3c2=O)c(Cl)cc1Cl [Mdivi1]	76 ± 18	104 ± 6.3	60 ± 1.5	44.2 ± 5.5	135 ± 44	77.9 ± 7.1	80.6 ± 2.8	41.5 ± 26	93.3 ± 18	84.9 ± 27	94.7 ± 11	50.1 ± 5.6	76.5 ± 8.6	98.8 ± 5.6	83.6 ± 2.9	84 ± 3.7	95.3 ± 11	93.4 ± 13	100 ± 10	83.1 ± 20
COC(=O)Nc1nc2cc(C(=O)c3ccccc3)ccc2[nH]1 [Mebendazole]	96.3 ± 10	59.8 ± 7.3	10.6 ± 9.4	7.21 ± 5.9	71.7 ± 21	64.7 ± 17	36.8 ± 8.2	14 ± 8.6	110 ± 10	79.4 ± 38	31.4 ± 12	26.5 ± 1.1	87.1 ± 7.3	78.9 ± 21	25 ± 7.1	20.6 ± 6.8	97.2 ± 18	83.2 ± 4.6	18.2 ± 7.5	19.9 ± 0.56
CN(Cc1cnc2nc(N)nc(N)c2n1)c1ccc(C(=O)N[C@@H](CCC(=O)O)C(=O)O)cc1 [Methotrexate]	116 ± 42	41 ± 1.5	22.1 ± 12	25.5 ± 6.4	89.6 ± 11	38.6 ± 12	40.6 ± 11	36.9 ± 8	97.5 ± 4.3	101 ± 17	91.2 ± 9.4	33.9 ± 8.7	98.43 ± 0.61	80.6 ± 3.4	51.2 ± 16	37.8 ± 12	105 ± 3.4	56 ± 1.1	41.2 ± 0.74	35.2 ± 0.52
O=C1c2c(O)ccc(O)c2C(=O)c2c(NCCNCCO)ccc(NCCNCCO)c21 [Mitoxantrone]	37.3 ± 21	22.3 ± 5.1	4.5 ± 0.26	4.94 ± 3.2	37.2 ± 4	22.3 ± 12	13.4 ± 1.2	7.6 ± 0.68	20.8 ± 7.3	17.3 ± 0.44	4.896 ± 0.008	6.65 ± 4.1	55 ± 13	39.2 ± 9.2	19.5 ± 5	5.45 ± 2	33.9 ± 2.3	30.46 ± 0.2	7.76 ± 0.68	7.21 ± 2.4

From the supplement of paper PMC7661543
